The results in this text go back to patent publication US9193720B2, “Pyridin-3-yl acetic acid derivatives as inhibitors of human immunodeficiency virus replication” (priority 2014, dated 2015).

In this test the test system is NL-RLuc virus. The experiment in a line: Inhibition of HIV Replication (NL-RLuc luciferase reporter virus in MT-2 cells). Format: cell-based. To be noted: Human immunodeficiency virus 1, MT2, 120 h. The source says: Inhibition of HIV Replication:
A recombinant NL-RLuc proviral clone was constructed in which a section of the nef gene from NL4-3 was replaced with the Renilla Luciferase gene. This virus is fully infectious and can undergo multiple cycles of replication in cell culture. In addition, the luciferous reporter provides a simple and easy method for quantitating the extent of virus growth and consequently, the antiviral activity of test compounds. The plasmid pNLRLuc contains the proviral NL-Rluc DNA cloned into pUC18 at the PvuII site. The NL-RLuc virus was prepared by transfection of 293T cells with the plasmid pNLRLuc. Transfections were performed using the LipofectAMINE PLUS kit from Invitrogen (Carlsbad, Calif.) according to the manufacturer and the virus generated was titered in MT-2 cells. For susceptibility analyses, the titrated virus was used to infect MT-2 cells in the presence of compound, and after 5 days of incubation, cells were processed and quantitated for virus growth by the amount of expressed luciferase. Assay media was RPMI 1640 supplemented with 10% heat inactivated fetal bovine serum (FBS), 100 units/ml penicillin G/100 units/ml streptomycin, 10 mM HEPES buffer pH 7.55 and 2 mM L-glutamine. The results from at least 2 experiments were used to calculate the EC50 values. Luciferase was quantitated using the Dual Luciferase kit from Promega (Madison, Wis.). Susceptibility of viruses to compounds was determined by incubation in the presence of serial dilutions of the compound. The 50% effective concentration (EC50) was calculated by using the exponential form of the median effect equation where (Fa)=1/[1+(ED50/drug conc.)^m] (Johnson V A, Byington R T. Infectivity Assay. In Techniques in HIV Research. ed. Aldovini A, Walker B D. 71-76. New York: Stockton Press. 1990).
On the technique in general: Reporter assays use an easily measured gene product as a stand-in for the process of interest.
Regarding `Cc1nc(C)c([C@H](OC(C)(C)C)C(=O)O)c(N2CCC(C)(C)CC2)c1-c1ccc(OCCc2cc(F)c(F)cc2F)cc1` [Example 50, (S)-2-(tert-butoxy)-2-(4-(4,4-dimethylpiperidin-1-yl)-2,6-dimethyl-5-(4-(2,4,5-trifluorophenethoxy)phenyl)pyridin-3-yl)acetic acid], the EC50 was determined as 0.003 µM.

Compound `Cc1nc(C)c([C@H](OC(C)(C)C)C(=O)O)c(N2CCC(C)(C)CC2)c1-c1ccc(OCCc2c(F)c(F)cc(F)c2F)cc1` [Example 51, (S)-2-(tert-butoxy)-2-(4-(4,4-dimethylpiperidin-1-yl)-2,6-dimethyl-5-(4-(2,3,5,6-tetrafluorophenethoxy)phenyl)pyridin-3-yl)acetic acid] displayed an EC50 of 0.006 µM.

For `Cc1ccc(CCOc2ccc(-c3c(C)nc(C)c([C@H](OC(C)(C)C)C(=O)O)c3N3CCC(C)(C)CC3)cc2)s1` [Example 52, (S)-2-(tert-butoxy)-2-(4-(4,4-dimethylpiperidin-1-yl)-2,6-dimethyl-5-(4-(2-(5-methylthiophen-2-yl)ethoxy)phenyl)pyridin-3-yl)acetic acid], it took 0.005 µM to reach a half-maximal effect (EC50).

On to `Cc1noc(C)c1CCOc1ccc(-c2c(C)nc(C)c([C@H](OC(C)(C)C)C(=O)O)c2N2CCC(C)(C)CC2)cc1` [Example 53, (S)-2-(tert-butoxy)-2-(5-(4-(2-(3,5-dimethylisoxazol-4-yl)ethoxy)phenyl)-4-(4,4-dimethylpiperidin-1-yl)-2,6-dimethylpyridin-3-yl)acetic acid], for which the half-maximal effective concentration (EC50) came to 0.002 µM.

Regarding `Cc1n[nH]c(C)c1CCOc1ccc(-c2c(C)nc(C)c([C@H](OC(C)(C)C)C(=O)O)c2N2CCC(C)(C)CC2)cc1` [Example 54, (S)-2-(tert-butoxy)-2-(5-(4-(2-(3,5-dimethyl-1H-pyrazol-4-yl)ethoxy)phenyl)-4-(4,4-dimethylpiperidin-1-yl)-2,6-dimethylpyridin-3-yl)acetic acid], a half-maximal response (EC50) required 0.008 µM.

Consider `Cc1ccc(-c2c(C)nc(C)c([C@H](OC(C)(C)C)C(=O)O)c2N2CCC(C)(C)CC2)cc1OCc1ccccc1` [Example 55, (S)-2-(5-(3-(benzyloxy)-4-methylphenyl)-4-(4,4-dimethylpiperidin-1-yl)-2,6-dimethylpyridin-3-yl)-2-(tert-butoxy)acetic acid], for which the midpoint of the response, the EC50, lay at 0.093 µM.

`Cc1nc(C)c([C@H](OC(C)(C)C)C(=O)O)c(N2CCC(C)(C)CC2)c1-c1ccc(OCc2ccncc2)cc1` [Example 56, (S)-2-(tert-butoxy)-2-(4-(4,4-dimethylpiperidin-1-yl)-2,6-dimethyl-5-(4-(pyridin-4-ylmethoxy)phenyl)pyridin-3-yl)acetic acid] gave an EC50 of 0.002 µM.

With `COc1ncc(-c2c(C)nc(C)c([C@H](OC(C)(C)C)C(=O)O)c2N2CCC(C)(C)CC2)cn1` [Example 57, (S)-2-(tert-butoxy)-2-(4-(4,4-dimethylpiperidin-1-yl)-5-(2-methoxypyrimidin-5-yl)-2,6-dimethylpyridin-3-yl)acetic acid], it took 0.217 µM to reach a half-maximal effect (EC50).

On to `Cc1nc(C)c([C@H](OC(C)(C)C)C(=O)O)c(N2CCC(C)(C)CC2)c1-c1cnc(OCCc2ccc(F)cc2)nc1` [Example 58, (S)-2-(tert-butoxy)-2-(4-(4,4-dimethylpiperidin-1-yl)-5-(2-(4-fluoro-phenethoxy)pyrimidin-5-yl)-2,6-dimethylpyridin-3-yl)acetic acid], for which the response was half-maximal at 0.009 µM (EC50). This EC50 lies about 24-fold lower than the previous one.

On to `CCCOc1ccc(-c2c(C)nc(C)c([C@H](OC(C)(C)C)C(=O)O)c2N2CCC(C)(C)CC2)cc1F` [Example 59, (S)-2-(tert-butoxy)-2-(4-(4,4-dimethylpiperidin-1-yl)-5-(3-fluoro-4-propoxyphenyl)-2,6-dimethylpyridin-3-yl)acetic acid], for which a half-maximal effect (EC50) was put at 0.021 µM.

The compound `COc1cc(-c2c(C)nc(C)c([C@H](OC(C)(C)C)C(=O)O)c2N2CCC(C)(C)CC2)cc(OC)c1OC` [Example 60, (S)-2-(tert-butoxy)-2-(4-(4,4-dimethylpiperidin-1-yl)-2,6-dimethyl-5-(3,4,5-trimethoxyphenyl)pyridin-3-yl)acetic acid] returned an EC50 of 0.262 µM.

Compound `COc1cc(-c2c(C)nc(C)c([C@H](OC(C)(C)C)C(=O)O)c2N2CCC(C)(C)CC2)ccc1C` [Example 61, (S)-2-(tert-butoxy)-2-(4-(4,4-dimethylpiperidin-1-yl)-5-(3-methoxy-4-methylphenyl)-2,6-dimethylpyridin-3-yl)acetic acid] gave an EC50 of 0.044 µM.

In the case of `COc1cccc(-c2c(C)nc(C)c([C@H](OC(C)(C)C)C(=O)O)c2N2CCC(C)(C)CC2)c1` [Example 62, (S)-2-(tert-butoxy)-2-(4-(4,4-dimethylpiperidin-1-yl)-5-(3-methoxyphenyl)-2,6-dimethylpyridin-3-yl)acetic acid], a half-maximal response (EC50) required 0.166 µM. This EC50 lies about 3.8-fold higher than the previous one.

Compound `Cc1nc(C)c([C@H](OC(C)(C)C)C(=O)O)c(N2CCC(C)(C)CC2)c1-c1ccc(OC(C)C)c(Cl)c1` [Example 63, (S)-2-(tert-butoxy)-2-(5-(3-chloro-4-isopropoxyphenyl)-4-(4,4-dimethylpiperidin-1-yl)-2,6-dimethylpyridin-3-yl)acetic acid] gave an EC50 of 0.119 µM.

Compound `CCCOc1c(C)cc(-c2c(C)nc(C)c([C@H](OC(C)(C)C)C(=O)O)c2N2CCC(C)(C)CC2)cc1C` [Example 64, (S)-2-(tert-butoxy)-2-(5-(3,5-dimethyl-4-propoxyphenyl)-4-(4,4-dimethylpiperidin-1-yl)-2,6-dimethylpyridin-3-yl)acetic acid] displayed a 50% effective concentration (EC50) of 0.026 µM.

`CCOc1ccc(-c2c(C)nc(C)c([C@H](OC(C)(C)C)C(=O)O)c2N2CCC(C)(C)CC2)cc1F` [Example 65, (S)-2-(tert-butoxy)-2-(4-(4,4-dimethylpiperidin-1-yl)-5-(4-ethoxy-3-fluorophenyl)-2,6-dimethylpyridin-3-yl)acetic acid] returned an EC50 of 0.044 µM.

In turn, `COc1cc(-c2c(C)nc(C)c([C@H](OC(C)(C)C)C(=O)O)c2N2CCC(C)(C)CC2)ccc1F` [Example 66, (S)-2-(tert-butoxy)-2-(4-(4,4-dimethylpiperidin-1-yl)-5-(4-fluoro-3-methoxyphenyl)-2,6-dimethylpyridin-3-yl)acetic acid] showed a half-maximal effective concentration (EC50) of 0.141 µM.

Consider `Cc1nc(C)c([C@H](OC(C)(C)C)C(=O)O)c(N2CCC(C)(C)CC2)c1-c1ccc(OCCc2ccc(F)cc2)nc1` [Example 67, (S)-2-(tert-butoxy)-2-(4-(4,4-dimethylpiperidin-1-yl)-6′-(4-fluorophenethoxy)-2,6-dimethyl-[3,3′-bipyridin]-5-yl)acetic acid], for which a half-maximal effect (EC50) was put at 0.007 µM.

`Cc1nc(C)c([C@H](OC(C)(C)C)C(=O)O)c(N2CCC(C3CC3)C2)c1-c1ccc(OCCc2ccc(F)cc2)cc1` (stereo partly drawn) [Example 68, (2S)-2-(tert-butoxy)-2-(4-(3-cyclopropylpyrrolidin-1-yl)-5-(4-(4-fluorophenethoxy)phenyl)-2,6-dimethylpyridin-3-yl)acetic acid] returned an EC50 of 0.042 µM.

`Cc1nc(C)c([C@H](OC(C)(C)C)C(=O)O)c(N2CC(F)(F)C2)c1-c1ccc(OCCc2ccc(F)cc2)cc1` [Example 69, (S)-2-(tert-butoxy)-2-(4-(3,3-difluoroazetidin-1-yl)-5-(4-(4-fluorophenethoxy)phenyl)-2,6-dimethylpyridin-3-yl)acetic acid] yielded a 50% effective concentration (EC50) of 1.99 µM.

Regarding `Cc1nc(C)c([C@H](OC(C)(C)C)C(=O)O)c(N2CC(C)(C)C2)c1-c1ccc(OCCc2ccc(F)cc2)cc1` [Example 70, (S)-2-(tert-butoxy)-2-(4-(3,3-dimethylazetidin-1-yl)-5-(4-(4-fluorophenethoxy)phenyl)-2,6-dimethylpyridin-3-yl)acetic acid], the EC50 worked out at 3.05 µM.

`Cc1nc(C)c([C@H](OC(C)(C)C)C(=O)O)c(N2CC(C(C)C)C2)c1-c1ccc(OCCc2ccc(F)cc2)cc1` [Example 71, (S)-2-(tert-butoxy)-2-(5-(4-(4-fluoro-phenethoxy)phenyl)-4-(3-isopropylazetidin-1-yl)-2,6-dimethylpyridin-3-yl)acetic acid] registered a concentration giving a half-maximal response (EC50) of 3.19 µM.

Take `Cc1nc(C)c([C@H](OC(C)(C)C)C(=O)O)c(N2CCC(c3ccccc3)CC2)c1-c1ccc(OCCc2ccc(F)cc2)cc1` [Example 72, (S)-2-(tert-butoxy)-2-(5-(4-(4-fluorophenethoxy)phenyl)-2,6-dimethyl-4-(4-phenylpiperidin-1-yl)pyridin-3-yl)acetic acid]: a half-maximal response (EC50) required 0.744 µM.

For `Cc1nc(C)c([C@H](OC(C)(C)C)C(=O)O)c(N2CCC(c3nc(C(C)C)no3)CC2)c1-c1ccc(OCCc2ccc(F)cc2)cc1` [Example 73, (S)-2-(tert-butoxy)-2-(5-(4-(4-fluorophenethoxy)phenyl)-4-(4-(3-isopropyl-1,2,4-oxadiazol-5-yl)piperidin-1-yl)-2,6-dimethylpyridin-3-yl)acetic acid], the concentration for a half-maximal effect (EC50) was 1.03 µM.

`Cc1nc(C)c([C@H](OC(C)(C)C)C(=O)O)c(N2CCC(C(F)(F)F)CC2)c1-c1ccc(OCCc2ccc(F)cc2)cc1` [Example 74, (S)-2-(tert-butoxy)-2-(5-(4-(4-fluorophenethoxy)phenyl)-2,6-dimethyl-4-(4-(trifluoromethyl)piperidin-1-yl)pyridin-3-yl)acetic acid] came in with a 50% effective concentration (EC50) of 0.379 µM.

A word on the EC50: it is the midpoint of the concentration-response curve. Higher therefore signals a need for much substance.
